Tested on: SEM cells
Test: cell viability relative to DMSO control; higher = less cytotoxic
Details: 48 h
How it was run: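 Viability values are per-plate percentages of DMSO wells, with background from cell-free wells. Library compounds in DMSO were pin-dosed, in an 11-point threefold series from 47 μM to 0.79 nM, onto NOMO1 or SEM (500 cells/well) or P12-Ichikawa (1000 cells/well) leukemia cells in 1536-well plates (5 μl). Those cells had been adapted for at least four passages in each medium, and CellTiter-Glo One luminescence was read after 48 h at 37°C.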

[1] = HPLM + 10% dialyzed FBS, 0.000781 µM
[2] = HPLM + 10% dialyzed FBS, 0.00234 µM
[3] = HPLM + 10% dialyzed FBS, 0.00702 µM
[4] = HPLM + 10% dialyzed FBS, 0.0211 µM
[5] = HPLM + 10% dialyzed FBS, 0.0632 µM
[6] = HPLM + 10% dialyzed FBS, 0.19 µM
[7] = HPLM + 10% dialyzed FBS, 0.569 µM
[8] = HPLM + 10% dialyzed FBS, 1.71 µM
[9] = HPLM + 10% dialyzed FBS, 5.12 µM
[10] = HPLM + 10% dialyzed FBS, 15.4 µM
[11] = HPLM + 10% dialyzed FBS, 46.1 µM
[12] = RPMI 5 mM glucose + 10% FBS, 0.000781 µM
[13] = RPMI 5 mM glucose + 10% FBS, 0.00234 µM
[14] = RPMI 5 mM glucose + 10% FBS, 0.00702 µM
[15] = RPMI 5 mM glucose + 10% FBS, 0.0211 µM
[16] = RPMI 5 mM glucose + 10% FBS, 0.0632 µM
[17] = RPMI 5 mM glucose + 10% FBS, 0.19 µM
[18] = RPMI 5 mM glucose + 10% FBS, 0.569 µM
[19] = RPMI 5 mM glucose + 10% FBS, 1.71 µM
[20] = RPMI 5 mM glucose + 10% FBS, 5.12 µM
[21] = RPMI 5 mM glucose + 10% FBS, 15.4 µM
[22] = RPMI 5 mM glucose + 10% FBS, 46.1 µM
[23] = RPMI 5 mM glucose + 10% dialyzed FBS, 0.000781 µM
[24] = RPMI 5 mM glucose + 10% dialyzed FBS, 0.00234 µM
[25] = RPMI 5 mM glucose + 10% dialyzed FBS, 0.00702 µM
[26] = RPMI 5 mM glucose + 10% dialyzed FBS, 0.0211 µM
[27] = RPMI 5 mM glucose + 10% dialyzed FBS, 0.0632 µM
[28] = RPMI 5 mM glucose + 10% dialyzed FBS, 0.19 µM
[29] = RPMI 5 mM glucose + 10% dialyzed FBS, 0.569 µM
[30] = RPMI 5 mM glucose + 10% dialyzed FBS, 1.71 µM
[31] = RPMI 5 mM glucose + 10% dialyzed FBS, 5.12 µM
[32] = RPMI 5 mM glucose + 10% dialyzed FBS, 15.4 µM
[33] = RPMI 5 mM glucose + 10% dialyzed FBS, 46.1 µM

Compound	cell viability [1]	cell viability [2]	cell viability [3]	cell viability [4]	cell viability [5]	cell viability [6]	cell viability [7]	cell viability [8]	cell viability [9]	cell viability [10]	cell viability [11]	cell viability [12]	cell viability [13]	cell viability [14]	cell viability [15]	cell viability [16]	cell viability [17]	cell viability [18]	cell viability [19]	cell viability [20]	cell viability [21]	cell viability [22]	cell viability [23]	cell viability [24]	cell viability [25]	cell viability [26]	cell viability [27]	cell viability [28]	cell viability [29]	cell viability [30]	cell viability [31]	cell viability [32]	cell viability [33]
CC(C)[C@@H](N(CCCN)C(=O)C1=CC=C(C)C=C1)C/2=N/C3=CC(=CC=C3C(=O)N2CC4=CC=CC=C4)Cl	84.5%	21%	20.5%	19.5%	16%	20.4%	19.5%	20.2%	21.9%	21.2%	21.9%	103%	16.5%	14.8%	14%	15.9%	15%	12.3%	13.7%	16.8%	16.2%	11.6%	80%	19.8%	16.2%	15.7%	16.4%	14.4%	17.5%	14.8%	16.4%	17.2%	13.2%
CC/C(=C(/c1ccc(O)cc1)c1ccc(OCCNC)cc1)c1ccccc1	61.4%	99.5%	91.2%	102%	103%	115%	101%	96.7%	65.6%	59.5%	26.1%	66.8%	102%	108%	112%	107%	109%	102%	94.8%	65.7%	47.8%	25.9%	53.5%	106%	88.3%	104%	95.8%	123%	97.6%	97.6%	69.5%	43.5%	38%
Cc1ccccc1C(C(=O)NC1CCCCC1)N(C(=O)Cn1ccnc1C)c1cccc(F)c1 (stereo unspecified)	109%	31%	118%	111%	109%	130%	127%	124%	114%	100%	92.7%	112%	108%	96.9%	103%	98.4%	114%	112%	121%	110%	84.1%	88.9%	84.5%	27.9%	100%	105%	102%	88.5%	110%	95.2%	97.4%	93.6%	90.6%
CC(=O)N(C)c1cccc(-c2ccnc3c(C(=O)c4cccs4)cnn23)c1	99.9%	88.7%	104%	37.5%	98.7%	99.4%	107%	103%	110%	90%	91.7%	108%	107%	95.5%	37.7%	112%	101%	94.1%	98.5%	101%	98.5%	97%	104%	99.7%	87%	46.9%	100%	101%	102%	109%	118%	112%	99.6%
CC(C)OC(=O)OCOP(=O)(CO[C@H](C)Cn1cnc2c(N)ncnc21)OCOC(=O)OC(C)C.O=C(O)C=CC(=O)O	85%	99.6%	28.3%	121%	105%	114%	114%	120%	98.2%	105%	35.1%	108%	113%	11.7%	119%	119%	124%	115%	115%	109%	94.8%	76.1%	77.3%	107%	23.8%	102%	113%	104%	97.9%	124%	104%	102%	32.2%
CN(CC#C)C/C1=C/C2=CC=CC=C2OC3=CC=CC=C13	90.9%	90.7%	79.7%	80.1%	76.8%	40.6%	32.1%	91.6%	30.1%	49.2%	42%	100%	109%	113%	105%	83.3%	49.9%	36.8%	117%	41.4%	61.3%	50.3%	80.4%	85.3%	81.2%	69.2%	60.6%	32.8%	29.1%	103%	29.2%	47.3%	37.7%
N=C(CCSCc1csc(N=C(N)N)n1)N[S+](N)(=O)[O-]	85.8%	82.3%	96.9%	82.6%	94.5%	99%	109%	98.5%	106%	96.1%	92.6%	89.9%	87.6%	103%	88%	91.8%	102%	99.4%	96.5%	100%	105%	92.2%	80.5%	80.4%	107%	82.2%	89%	93.6%	96.1%	103%	107%	92.6%	116%
